What was measured:
[1] = target: T1, dopamine D2 receptor (Rattus norvegicus, UniProt P61169); experiment: Affinity for the dopamine autoreceptor, 3H-quinpirole (D2 Quin.) binding in homogenized rat striatal brain tissue; set-up: homogenized rat striatal brain tissue; from tissue; host or cells: rat striatal brain tissue (homogenate); settings: high-affinity agonist state
Method: Affinity for the dopamine autoreceptor was established by a modification of the standard experimental test procedure of Seemen and Schaus, European Journal of Pharmacology 203: 105-109, 1991, wherein homogenized rat striatal brain tissue is incubated with ^3 H-quinpirole (Quin.) and various concentrations of test compound, filtered and washed and counted in a Betaplate scintillation counter.

[2] = target: T1, dopamine D2 receptor; experiment: Affinity for the dopamine D-2 receptor, 3H-spiroperidol (D2 Spiper) binding in homogenized limbic brain tissue; set-up: homogenized limbic brain tissue; from tissue; host or cells: limbic brain tissue (homogenate); settings: low-affinity agonist state
Method: High affinity for the dopamine D-2 receptor was established by the standard experimental test procedure of Fields, et al., Brain Res., 136, 578 (1977) and Yamamura et al., eds., Neurotransmitter Receptor Binding, Raven Press, N.Y. (1978) wherein homogenized limbic brain tissue is incubated with ^3 H-spiroperidol (Spiper.) and various concentrations of test compound, filtered and washed and shaken with Hydrofluor scintillation cocktail (National Diagnostics) and counted in a Packard 460 CD scintillation counter.

T1 sequence (P61169 whole entry): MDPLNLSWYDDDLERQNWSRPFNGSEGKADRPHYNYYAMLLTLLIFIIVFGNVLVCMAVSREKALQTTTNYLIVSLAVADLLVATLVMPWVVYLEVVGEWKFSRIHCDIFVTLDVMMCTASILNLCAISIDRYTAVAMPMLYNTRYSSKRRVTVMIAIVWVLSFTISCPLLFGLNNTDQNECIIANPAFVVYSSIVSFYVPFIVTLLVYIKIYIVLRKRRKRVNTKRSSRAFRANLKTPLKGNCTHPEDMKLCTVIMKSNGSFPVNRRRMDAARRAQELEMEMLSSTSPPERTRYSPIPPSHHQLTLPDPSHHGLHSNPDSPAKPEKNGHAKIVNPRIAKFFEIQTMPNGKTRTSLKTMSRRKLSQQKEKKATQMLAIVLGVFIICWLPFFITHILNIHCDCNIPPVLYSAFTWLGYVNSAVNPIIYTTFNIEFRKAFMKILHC

| SMILES | IC50 [1] | IC50 [2] |
| --- | --- | --- |
| Cc1ccc(CNCCOc2cccc3[nH]c(=S)[nH]c23)cc1 [Example 2, 4-[2-(4-Methyl-benzylamino)-ethoxy]-1,3-dihydro-benzoimidazole-2-thione] | 0.42 nM | 37.7 nM |
| S=c1[nH]c2cccc(OCCCNCc3ccccc3)c2[nH]1 [Example 3] | 14.9 nM | 1190 nM |
| S=c1[nH]c2cccc(OCCNCc3ccc(Cl)cc3)c2[nH]1 [Example 6, 4-[2-(4-Chloro-benzylamino)-ethoxy]-1,3-dihydro-benzoimidazole-2-thione] | 0.21 nM | 88 nM |
| S=c1[nH]c2cc(Cl)cc(OCCNCc3cccs3)c2[nH]1 [Example 8, 6-Chloro-4-{2-[(thiophen-2-ylmethyl)-amino]-ethoxy}-1,3-dihydro-benzoimidazole-2-thione] | 0.37 nM | 88 nM |
| S=c1[nH]c2cccc(OCCN3CCc4ccccc4C3)c2[nH]1 [Example 10, 4-[2-(3,4-Dihydro-1H-isoquinolin-2-yl)-ethoxy]-1,3-dihydro-benzoimidazole-2-thione] | 2.67 nM | 234 nM |

More lines, in order of falling IC50 [1], values ahead:

| IC50 [1] | IC50 [2] | SMILES |
| --- | --- | --- |
| 0.82 nM | 6.87 nM | CC(C)(C)c1ccc(CNCCOc2cccc3[nH]c(=S)[nH]c23)cc1 [Example 5, 4-[2-(4-tert-Butyl-benzylamino)-ethoxy]-1,3-dihydro-benzoimidazole-2-thione] |
| 0.43 nM | 36.9 nM | S=c1[nH]c2cccc(OCCNCc3cccc4ccccc34)c2[nH]1 [Example 4, 4-{2-[(Naphthalen-1-ylmethyl)-amino]-ethoxy}-1,3-dihydro-benzoimidazole-2-thione] |
| 0.39 nM | 57 nM | Sc1nc2c(OCCNCc3ccccc3)cc(Cl)cc2[nH]1 [Example 7, 4-(2-Benzylamino-ethoxy)-6-chloro-1,3-dihydro-benzoimidazole-2-thione] |
| 0.36 nM | 33.4 nM | S=c1[nH]c2cccc(OCCNCc3ccccc3)c2[nH]1 [Example 1, 4-(2-Benzylamino-ethoxy)-1,3-dihydro-benzoimidazol-2-thione] |
| 0.18 nM | 85 nM | S=c1[nH]c2cc(Cl)cc(OCCNCc3ccsc3)c2[nH]1 [Example 9, 6-Chloro-4-{2-[(thiophen-3-ylmethyl)-amino]-ethoxy}-1,3-dihydro-benzoimidazole-2-thione] |

Reference: US5972958A, “4-aminoalkoxy-1,3-dihydro-benzoimidazol-2-thiones” (American Home Products Corporation, priority 1998, dated 1999)
